For data set [1] the following is noted: cited from earlier work.
For data set [2], the target named is central cholinergic receptors. In words: 3H-oxotremorine M binding, rat brain homogenates. The conditions noted are these: rat brain homogenate, pH 7.4, 40 min at 30 °C; read-out: Binding IC50, 3H-Oxo-M.
Description: Briefly, rat brains were homogenized in 100 vol (w/v) 10 mM Na,K-phosphate buffer (pH 7.4) and aliquots incubated with ^3 H-oxotremorine M (84.9 Ci/mmol, NEN) alone or in the presence of test compound in a total volume of 1.5 ml for 40 min. at 30° C. The reaction was stopped by adding 5 ml ice-cold buffer and filtered through Whatman GF/B filters soaked previously in 0.1% polyethylenimin (Sigma) for minimum 30 min. The filters were washed once with the same volume of buffer, transferred to scintillation vials and extracted in scintillation fluid (Pico-fluor 15, Packard) for at least two hours before counted in a liquid scintillation spectrometer (Beckman LS 1800). Non-specific binding was estimated at 10 μM atropine and all estimations made in triplicate. At least two displacement curves were made for each compound tested.
For data set [3] the following is noted: cited from earlier work. The source holds these as a separate data set.
For data set [4] the following is noted: after peripheral administration; cited from earlier work.
Data set [5] has as its target T1, central muscarinic M-1 receptors (Rattus norvegicus, UniProt P08482).
T1 sequence (P08482 1-460): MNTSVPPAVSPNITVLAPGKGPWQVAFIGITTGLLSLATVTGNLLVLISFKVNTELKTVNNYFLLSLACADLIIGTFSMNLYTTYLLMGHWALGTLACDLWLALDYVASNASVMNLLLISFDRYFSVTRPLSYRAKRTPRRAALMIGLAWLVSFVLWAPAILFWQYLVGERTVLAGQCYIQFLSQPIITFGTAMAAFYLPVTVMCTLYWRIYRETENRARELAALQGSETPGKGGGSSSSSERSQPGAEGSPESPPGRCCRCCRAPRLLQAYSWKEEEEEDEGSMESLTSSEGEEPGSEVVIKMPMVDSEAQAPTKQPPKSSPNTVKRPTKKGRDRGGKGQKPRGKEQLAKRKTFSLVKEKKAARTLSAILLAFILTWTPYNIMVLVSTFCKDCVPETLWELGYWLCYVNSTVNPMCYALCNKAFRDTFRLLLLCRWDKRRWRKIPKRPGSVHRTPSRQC
The data set is described as follows: biochemical. The conditions noted are these: rat brain homogenate, 1.0 nM 3H-pirenzepine, 60 min at 25 °C; read-out: Binding IC50, 3H-Pirenzepine. How it is done: ^3 H-pirenzepine binding was performed essentially as described by Watson et al., 1983, the conditions being very much the same as for ^3 H-oxotremorine binding, except that aliquots were incubated with 1.0 nM ^3 H-pirenzepine for 60 min. at 25° C. and that the reaction was stopped by direct filtration followed by 3 washes with 4 ml buffer.

Each structure is given as a SMILES string. Counter-ions that a name gives are not always drawn. Like-named read-outs stand apart in the source and are kept apart here.

As to `CC(=O)OCC[N+](C)(C)C` [AcCh, acetylcholine], the “penetration of the blood-brain barrier” value in data set [1] (in vivo) is recorded as “do not penetrate the blood-brain barrier (BBB) easily”.
In the case of `COC(=O)C1=CCCN(C)C1` [Arecoline, methyl 1-methyl-1,2,5,6-tetrahydropyridine-3-carboxylate], the IC50 in data set [2] is 1.9 nM. Further, the “hydrolysis of the ester group in vivo” value in data set [3] is recorded as “very rapidly hydrolyzed in vivo”. In addition, in data set [4], the central effects entry is “very weak and frequently negligible central effects”. Also, the “penetration of the blood-brain barrier” value in data set [1] (after peripheral administration) is recorded as “capable of penetrating the BBB after peripheral administration”.
As for `CCOc1noc2c1CNCCC2` [Example 4, 3-Ethoxy-5,6,7,8-tetrahydro-4H-isoxazolo[4,5-c]azepine Hydrochloride], the IC50 in data set [2] stood at 0.49 nM; in data set [5] it was 11 nM.
For the molecule `COc1noc2c1CNCCC2` [Example 5, 3-Methoxy-5,6,7,8-tetrahydro-4H-isoxazolo[4,5-c]azepine Hydrochloride], the IC50 came out at 2.8 nM in data set [2] and 248 nM in data set [5].
Consider `CC(C)Oc1noc2c1CNCCC2` [Example 6, 3-Isopropoxy-5,6,7,8-tetrahydro-4H-isoxazolo[4,5-c]azepine Hydrochloride], for which the IC50 in data set [2] came out at 8.3 nM; in data set [5], 5 nM.
Taken in the same sequence, the figures for `C#CCOc1noc2c1CNCCC2` [Example 9, 3-(2-Propynyloxy)-5,6,7,8-tetrahydro-4H-isoxazolo [4,5-c]azepine Hydrochloride] were 0.34 nM and 16 nM.
Taken in the same sequence, the figures for `C#CCOc1noc2c1CNCCC2C` (centres unmarked) [Example 14, 8-Methyl-3-(2-propynyloxy)-5,6,7,8-tetrahydro-4H-isoxazolo 4,5-c azepine, Fumarate] were 0.93 nM and 16 nM.
On to `COc1noc2c1CNCC2` [O-Methyl-THPO, reference compound], for which the IC50 in data set [2] amounted to 62 nM; in data set [5] it was 8600 nM.

Values taken from patent US4960769A, “5,6,7,8-tetrahydro-4H-isoxazolo[4,5-c]-azepine derivatives” (H. Lundbeck A/S, priority 1987, dated 1990).
